According to patent publication US20030055065A1, “Tricyclic amide and urea compounds useful for inhibition of G-protein function and for treatment of proliferative diseases” (priority 1993, published 2003):
Values joined by “and” are separate entries in the source; they are usually repeats but may differ in a detail not shown here. Equal entries are not always repeated.

test system: Ras-CVLS processing in COS monkey kidney cells; assay: COS cell assay: Ras-CVLS processing (Western blot); type: cell-based; settings: Primates, COS, COS cells; read-out: Inhibition of Ras Processing IC50
Procedure: 2. […] Effect of farnesyl protein transferase inhibitors on Ras processing and on disordered cell growth induced by transforming Ras. COS monkey kidney cells were transfected by electroporation with the plasmid pSV-SPORT (Gibco/BRL) containing a cDNA insert encoding either Ras-CVLS or Ras-CVLL, leading to transient overexpression of a Ras substrate for either farnesyl protein transferase or geranylgeranyl protein transferase I, respectively (see above). […] After 24 hours, media was removed and fresh media containing the appropriate drugs was re-added. 48 hours after electroporation cells were examined under the microscope to monitor disordered cell growth induced by transforming Ras. Cells expressing transforming Ras become more rounded and refractile and overgrow the monolayer, reminiscent of the transformed phenotype. […] Cells were lysed by homogenization and cell debris was removed by centrifugation at 2000×g for 10 min. Cellular protein was precipitated by addition of ice-cold trichloroacetic acid and redissolved in 100 μl of SDS-electrophoresis sample buffer. […] Proteins resolved on the gels were electroblotted onto nitrocellulose membranes for immunodetection. […] E., et al., (1982), Monoclonal antibodies to the p21 products of the transforming gene of Harvey murine sarcome virus and of the cellular ras gene family, J. Virol. 43: 294-304), in PBS containing 1% fetal calf serum for one hour at room temperature. After washing, membranes were incubated for one hour at room temperature with a 1:5000 dilution of secondary antibody, rabbit anti-rat IgG conjugated to horseradish peroxidase, in PBS containing 1% fetal calf serum.

Compared with `O=C(CN1CCS(=O)(=O)CC1)N1CCC(=C2c3ccc(Cl)cc3CCc3cc(Br)cnc32)CC1` [Example 410-G], `O=C1Cc2cc(Cl)ccc2C(=C2CCN(C(=O)Cc3ccncc3)CC2)c2ncccc21` [Example 281] is 1.8-fold higher in IC50: 4 µM for the first, 7 µM for the second. The first is the more potent here.

`CN1CCC(CC(=O)N2CCN(C3c4ccc(Cl)cc4CCc4c(Cl)ccnc43)CC2)CC1` (stereo not shown) [Example 425-P] and `O=C(Nc1cccnc1)N1CCN([C@H]2c3ccc(Cl)cc3CCc3cccnc32)CC1` [224 (6.11)] are within 1.5-fold of each other in IC50: 5.7 µM for the first, 7.3 µM for the second.

molecular target: T1, farnesyl protein transferase (FPT), partially purified from rat brain (Rattus norvegicus, UniProt Q02293+Q04631); assay: Inhibition of farnesyl protein transferase (transfer of [3H]farnesyl to Ras-CVLS); type: biochemical; settings: Ras-CVLS farnesylation, partially purified rat brain FPT; read-out: FPT IC50
T1 construct: were partially purified from rat brain by ammonium sulfate fractionation followed by Q-Sepharose
T1 sequence (Q02293 whole entry, one chain of several): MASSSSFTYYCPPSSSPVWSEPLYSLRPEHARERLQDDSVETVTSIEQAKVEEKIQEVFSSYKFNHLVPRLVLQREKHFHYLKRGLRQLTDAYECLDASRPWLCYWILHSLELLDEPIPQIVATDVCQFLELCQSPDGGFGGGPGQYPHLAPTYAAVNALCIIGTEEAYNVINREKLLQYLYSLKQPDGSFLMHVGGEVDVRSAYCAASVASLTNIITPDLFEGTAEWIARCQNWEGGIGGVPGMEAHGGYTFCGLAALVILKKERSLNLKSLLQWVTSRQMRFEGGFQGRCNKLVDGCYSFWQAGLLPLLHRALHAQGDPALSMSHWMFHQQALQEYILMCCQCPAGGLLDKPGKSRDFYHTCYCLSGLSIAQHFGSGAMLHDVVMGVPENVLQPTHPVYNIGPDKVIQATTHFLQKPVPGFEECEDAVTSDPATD
Summary of the method: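 Partially purified farnesyl protein transferase with His6-tagged val12-Ha-Ras-CVLS substrate and [3H]farnesyl pyrophosphate, 30 min at room temperature. Stopped with SDS/TCA, precipitated Ras collected on GF/C filters; percent inhibition relative to DMSO vehicle control.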

Compared with `CN1CCC(CC(=O)N2CCC(C3c4ccc(Cl)cc4C=Cc4cc(Br)cnc43)CC2)CC1` (stereo not shown) [Example 400-B], `O=C(CN1CCS(=O)(=O)CC1)N1CCC(=C2c3ccc(Cl)cc3CCc3cc(Br)cnc32)CC1` [Example 410-G] is 3.1-fold higher in IC50: 0.068 µM for the first, 0.21 µM for the second.

`O=C(Cc1ccncc1)N1CCC(=C2c3ccc(Cl)cc3CCc3cc(I)cnc32)CC1` [Example 400] and `O=C(Cc1ccncc1)N1CCC(=C2c3ccc(Cl)cc3CCc3cc(Br)cnc32)CC1` [Example 246] are within 1.5-fold of each other in IC50: 0.068 µM for the first, 0.06 µM for the second.

Compared with `O=C1Cc2cc(Cl)ccc2C(=C2CCN(C(=O)Cc3ccncc3)CC2)c2ncccc21` [Example 281], `O=C(Nc1cccnc1)N1CCN([C@H]2c3ccc(Cl)cc3CCc3cccnc32)CC1` [224 (6.11)] is 6.3-fold lower in IC50: 2.9 µM for the first, 0.46 µM for the second.

For `CO[C@@](C(=O)N1CCC(=C2c3ccc(Cl)cc3CCc3cccnc32)CC1)(c1ccccc1)C(F)(F)F` [Example 290], the IC50 was 3.8 µM and 2.55 µM.

same assay, conditions: enzyme inhibition; read-out: FPT IC50

Compared with `CN1CCC(CC(=O)N2CCC(C3c4ccc(Cl)cc4C=Cc4cc(Br)cnc43)CC2)CC1` (stereo not shown) [Example 400-B], `CN1CCC(CC(=O)N2CCN(C3c4ccc(Cl)cc4CCc4c(Cl)ccnc43)CC2)CC1` (stereo not shown) [Example 425-P] is 6.6-fold higher in IC50: 0.068 µM for the first, 0.45 µM for the second. The first is the more potent here.

First: O=C(Cc1ccncc1)N1CCC(=C2c3ccc(Cl)cc3CCc3cc(I)cnc32)CC1 [Example 400]
Second: O=C(CN1CCS(=O)(=O)CC1)N1CCC(=C2c3ccc(Cl)cc3CCc3cc(Br)cnc32)CC1 [Example 410-G]
The IC50 of the first is 3.1-fold lower: 0.068 µM for the first, 0.21 µM for the second. The first is the more potent here.

test system: T24-BAG4 human bladder carcinoma cells expressing an activated H-ras gene; assay: Cell Mat Assay: tumor cell colony inhibition (tIC50); type: cell-based; settings: Homo sapiens, inhibition of tumor cell growth
Summary of the method: (§1)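 Serial compound dilutions added 24 h after planting T24-BAG4 cells onto a mat of normal cells, then 14 d colony growth; monolayers glutaraldehyde-fixed and tumor cells X-Gal stained. tIC50 and mIC50 from microscope counts of colonies, cells per colony and mat cell density.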

Compared with `CN1CCC(CC(=O)N2CCC(C3c4ccc(Cl)cc4C=Cc4cc(Br)cnc43)CC2)CC1` (stereo not shown) [Example 400-B], `CN1CCC(CC(=O)N2CCN(C3c4ccc(Cl)cc4CCc4c(Cl)ccnc43)CC2)CC1` (stereo not shown) [Example 425-P] is higher in IC50: less than 1.6 µM for the first, greater than 3.1 µM for the second. The first is the more potent here.

First: CO[C@@](C(=O)N1CCC(=C2c3ccc(Cl)cc3CCc3cccnc32)CC1)(c1ccccc1)C(F)(F)F [Example 290]
Second: O=C(Cc1ccncc1)N1CCC(=C2c3ccc(Cl)cc3CCc3cc(I)cnc32)CC1 [Example 400]
The IC50 of the first is 7.8-fold higher: 12.5 µM for the first, 1.6 µM for the second.

Going from `O=C1Cc2cc(Cl)ccc2C(=C2CCN(C(=O)Cc3ccncc3)CC2)c2ncccc21` [Example 281] to `O=C(Nc1cccnc1)N1CCN([C@H]2c3ccc(Cl)cc3CCc3cccnc32)CC1` [224 (6.11)], the IC50 rises from 4 µM to 37 µM (9.2-fold). The first is the more potent here.

same assay, conditions: inhibition of tumor cell growth

With `CO[C@@](C(=O)N1CCC(=C2c3ccc(Cl)cc3CCc3cccnc32)CC1)(c1ccccc1)C(F)(F)F` [Example 290] the IC50 was 6.25 µM and 8 µM.

molecular target: T2, geranylgeranyl protein transferase (GGPT) I (Rattus norvegicus, UniProt P53610+Q04631); assay: Inhibition of geranylgeranyl protein transferase I (Ras-CVLL as acceptor); type: biochemical; settings: (33) μM
T2 construct: were partially purified from rat brain by ammonium sulfate fractionation followed by Q-Sepharose
T2 sequence (P53610 whole entry, one chain of several): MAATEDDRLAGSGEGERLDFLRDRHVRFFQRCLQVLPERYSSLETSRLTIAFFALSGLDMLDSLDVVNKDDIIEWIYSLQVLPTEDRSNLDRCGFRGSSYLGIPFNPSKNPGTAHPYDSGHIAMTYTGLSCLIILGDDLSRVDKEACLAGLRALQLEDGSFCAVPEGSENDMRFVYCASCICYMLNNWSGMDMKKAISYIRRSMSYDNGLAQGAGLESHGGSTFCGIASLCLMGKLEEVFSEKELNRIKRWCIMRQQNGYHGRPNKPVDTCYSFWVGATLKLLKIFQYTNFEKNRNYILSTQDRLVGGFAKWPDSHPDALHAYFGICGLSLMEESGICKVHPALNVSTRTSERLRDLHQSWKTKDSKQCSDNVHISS
Excerpt: 1. In vitro enzyme assays: Inhibition of farnesyl protein transferase and geranylgeranyl protein transferase.
Both farnesyl protein transferase (FPT) and geranylgeranyl protein transferase (GGPT) I were partially purified from rat brain by ammonium sulfate fractionation followed by Q-Sepharose (Pharmacia, Inc.) anion exchange chromatography essentially as described by Yokoyama et al (Yokoyama, K., et al., (1991), A protein geranylgeranyltransferase from bovine brain: Implications for protein prenylation specificity, Proc. Natl. Acad. Sci USA 88: 5302-5306, the disclosure of which is incorporated herein by reference thereto). Human farnesyl protein transferase was also expressed in E. coli, using cDNA clones encoding both the α and β subunits. The methods used were similar to those published (Omer, C. et al., (1993), Characterization of recombinant human farnesyl protein transferase: Cloning, expression, farnesyl diphosphate binding, and functional homology with yeast prenyl-protein transferases, Biochemistry 32:5167-5176). Human farnesyl protein transferase was partially-purified from the soluble protein fraction of E. coli as described above. […] Two forms of val^12-Ha-Ras protein were prepared as substrates for these enzymes, differing in their carboxy terminal sequence. One form terminated in cysteine-valine-leucine-serine (Ras-CVLS) the other in cystein-valine-leucine-leucine (Ras-CVLL). Ras-CVLS is a substrate for the farnesyl protein transferase while Ras-CVLL is a substrate for geranylgeranyl protein transferase I. The cDNAs encoding these proteins were constructed so that the proteins contain an amino-terminal extension of 6 histidine residues. Both proteins were expressed in Escherichia coli and purified using metal chelate affinity chromatography. The radiolabelled isoprenyl pyrophosphate substrates, [^3H]farnesyl pyrophosphate and [3H]geranylgeranyl pyrophosphate, were purchased from DuPont/New England Nuclear.
The geranylgeranyl protein transferase I assay was essentially identical to the farnesyl protein transferase assay described above, with two exceptions: [^3H]geranylgeranylpyrophosphate replaced farnesyl pyrophosphate as the isoprenoid donor and Ras-CVLL was the protein acceptor.

`O=C(CN1CCS(=O)(=O)CC1)N1CCC(=C2c3ccc(Cl)cc3CCc3cc(Br)cnc32)CC1` [Example 410-G] was tested, and the “GGPT inhibition at the concentration in parentheses” value was 32 (33).

same assay, conditions: (36) μM

With `O=C(Cc1ccncc1)N1CCC(=C2c3ccc(Cl)cc3CCc3cc(I)cnc32)CC1` [Example 400] the “GGPT inhibition at the concentration in parentheses” value was 29 (36).

same assay, conditions: enzyme inhibition

`CN1CCC(CC(=O)N2CCC(C3c4ccc(Cl)cc4C=Cc4cc(Br)cnc43)CC2)CC1` (stereo not shown) [Example 400-B] and `O=C(Cc1ccncc1)N1CCC(=C2c3ccc(Cl)cc3CCc3cc(Br)cnc32)CC1` [Example 246] cannot be ordered by IC50: greater than 38 µM for the first, greater than 40 µM for the second.

Work on `CO[C@@](C(=O)N1CCC(=C2c3ccc(Cl)cc3CCc3cccnc32)CC1)(c1ccccc1)C(F)(F)F` [Example 290] yielded an IC50 greater than 38 µM.

test system: Normal human HEPM fibroblasts; assay: Cell Mat Assay: density of mat cells (mIC50); type: cell-based; settings: Homo sapiens, Fibroblast
Summary of the method: as §1

`CO[C@@](C(=O)N1CCC(=C2c3ccc(Cl)cc3CCc3cccnc32)CC1)(c1ccccc1)C(F)(F)F` [Example 290] and `O=C(Cc1ccncc1)N1CCC(=C2c3ccc(Cl)cc3CCc3cc(I)cnc32)CC1` [Example 400] cannot be ordered by IC50: greater than 50 µM for the first, greater than 25 µM for the second.

Compared with `O=C(Cc1ccncc1)N1CCC(=C2c3ccc(Cl)cc3CCc3cc(Br)cnc32)CC1` [Example 246], `O=C1Cc2cc(Cl)ccc2C(=C2CCN(C(=O)Cc3ccncc3)CC2)c2ncccc21` [Example 281] is higher in IC50: 50 µM for the first, greater than 50 µM for the second. The first is the more potent here.

Going from `CN1CCC(CC(=O)N2CCN(C3c4ccc(Cl)cc4CCc4c(Cl)ccnc43)CC2)CC1` (stereo not shown) [Example 425-P] to `O=C(Nc1cccnc1)N1CCN([C@H]2c3ccc(Cl)cc3CCc3cccnc32)CC1` [224 (6.11)], the IC50 rises from 3.1 µM to greater than 50 µM.

same assay, conditions: listed as 246 (5.121)

In the case of `O=C(Cc1ccncc1)N1CCC(=C2c3ccc(Cl)cc3CCc3cc(Br)cnc32)CC1` [Example 246], the IC50 is reported as greater than 50 µM.
